This note sets out measurements from patent publication US10501479B2, “Benzenesulfonyl-asymmetric ureas and medical uses thereof” (HELSINN HEALTHCARE SA, priority 2016, dated 2019).

pEC50, pIC50: −log10 of the molar value.

T2 sequence (Q92847 whole entry): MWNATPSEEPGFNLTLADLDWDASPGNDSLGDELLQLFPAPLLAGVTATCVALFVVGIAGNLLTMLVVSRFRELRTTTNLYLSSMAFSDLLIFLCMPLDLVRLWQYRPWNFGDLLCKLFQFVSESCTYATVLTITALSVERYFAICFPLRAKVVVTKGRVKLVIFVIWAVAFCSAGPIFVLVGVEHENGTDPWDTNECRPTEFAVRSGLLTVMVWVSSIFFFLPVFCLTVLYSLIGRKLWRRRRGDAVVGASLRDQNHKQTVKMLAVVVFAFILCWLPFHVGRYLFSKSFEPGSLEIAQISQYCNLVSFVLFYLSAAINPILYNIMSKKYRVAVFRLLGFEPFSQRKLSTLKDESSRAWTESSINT

The target in the first experiment is T1, GHSR-1a (HEK293/GHSR1a cell line) (Homo sapiens, UniProt Q92847).
T1 construct: expressed in transfected cells; host or cells: HEK293/GHSR1a cell line
T1 sequence (Q92847 whole entry): as above
Kind of experiment: Ghrelin antagonist potency (IC50) with calcium FLIPR assay, ghrelin 10 nM. It counts as cell-based. Particulars: HEK293/GHSR1a, ghrelin 10 nM, read-out: Activity IC50 (ghrelin antagonist potency). The method, then:
Evaluation of Ghrelin Agonist (EC50) and Antagonist Potency (IC50) with Calcium FLIPR Assay:
The intracellular calcium assay was carried out in a 384-well format FLIPR™ (Molecular Device) HEK293/GHSR1a cell line. Cells were seeded 24 hr prior to the experiments at an optimal density per well. Preincubation with selected calcium dye lasted for 30-60 min at room temperature or 37° C. Test compounds, dissolved in DMSO, were added at the appropriate time and incubated for 15 min followed by the addition of ghrelin with FlexStation or FLIPR. Relative fluorescence was monitored by the FLIPR™ Molecular Device. EC50 and IC50 values were estimated from dose-response data using GraphPad Prism software. To check for GHSR-1a agonism, the compound was added at t=20 sec. and the calcium response was followed for 2 minutes. To check for GHSR-1a antagonism, the compound and Ghrelin (10 nM) were added to the cells at t=20 sec. and the calcium response was measured for 2 minutes. The potency of the antagonist was calculated by its ability to reduce the ghrelin response. Dose-response curves were made for relevant antagonists.
For the compound `CC(c1ccccc1)N1Cc2cc(S(=O)(=O)Cc3ccc4c(c3)CNC4)ccc2NC1=O` (stereo not shown) [H1395, 6-((isoindolin-5-ylmethyl)sulfonyl)-3-(1-phenylethyl)-3,4-dihydroquinazolin-2(1H)-one], the pIC50 is 7.16.
Regarding `CCc1ccc(Cl)c(C(=O)NC(=O)Nc2ccc(S(=O)(=O)Nc3ccc4c(c3)CNCC4)cc2)c1` [H1263, 2-chloro-5-ethyl-N-((4-(N-(1,2,3,4-tetrahydroisoquinolin-7-yl)sulfamoyl)phenyl)carbamoyl) benzamide], the pIC50 is 6.61.

The same experiment, now with this note: ghrelin antagonist potency, read-out: IC50 (Activity).
As to `C[C@H](NC(=O)Nc1ccc(S(=O)(=O)Cc2ccc3c(c2)COCC3)cc1)c1cccc(Cl)c1Cl` [H1097, (S)-1-(1-(2,3-dichlorophenyl)ethyl)-3-(4-((isochroman-7-ylmethyl)sulfonyl)phenyl)urea], the negative logarithm of the IC50 (pIC50) is 5.71.
As for `C[C@H](NC(=O)Nc1ccc(S(=O)(=O)Nc2ccc(CN)cc2)cc1)c1cccc(Cl)c1Cl` [H1050, (S)-N-(4-(aminomethyl)phenyl)-4-(3-(1-(2,3-dichlorophenyl)ethyl)ureido) benzenesulfonamide], the negative-log IC50 (pIC50) is 7.24.
In the case of `CC(C)(C)NC(=O)Nc1ccc(S(=O)(=O)Cc2ccc3c(c2)CNC3)cc1` [H1205, 1-(tert-butyl)-3-(4-((isoindolin-5-ylmethyl)sulfonyl)phenyl)urea], the pIC50 is 5.01.
The same measure, in the same setting: the same measure for `C[C@H](NC(=O)Nc1ccc(S(=O)(=O)CC2CC2)cc1)c1cccc(Cl)c1Cl` [H1078, (S)-1-(4-((cyclopropylmethyl)sulfonyl)phenyl)-3-(1-(2,3-dichlorophenyl)ethyl)urea]: 5.45; for `COC(=O)c1ccc(NS(=O)(=O)c2ccc(NC(=O)N[C@@H](C)c3cccc(Cl)c3Cl)cc2)cc1` [H1061, methyl (S)-4-((4-(3-(1-(2,3-dichlorophenyl)ethyl)ureido)phenyl)sulfonamido)benzoate]: 5.54; for `C[C@H](NC(=O)Nc1ccc(S(=O)(=O)Cc2ccc(C(N)=O)cc2)cc1)c1cccc(Cl)c1Cl` [H1073, (S)-4-(((4-(3-(1-(2,3-dichlorophenyl)ethyl)ureido)phenyl)sulfonyl)methyl)benzamide]: under 4.52.
Consider `C[C@H](NC(=O)Nc1ccc(S(=O)(=O)Nc2ccc(-c3ncc[nH]3)cc2)cc1)c1cccc(Cl)c1Cl` [H1110, (S)-N-(4-(1H-imidazol-2-yl)phenyl)-4-(3-(1-(2,3-dichlorophenyl)ethyl)ureido) benzenesulfonamide], for which the pIC50 is 6.02.
The same measure, in the same setting: the figure for `C[C@H](NC(=O)Nc1ccc(S(=O)(=O)N2CCN(C)CC2)cc1)c1ccccc1` [H1225, (S)-1-(4-((4-methylpiperazin-1-yl)sulfonyl)phenyl)-3-(1-phenylethyl)urea] is 5.23; for `COc1ccc([C@H](C)NC(=O)Nc2ccc(S(=O)(=O)Nc3ccc(C)cc3)cc2)c(Cl)c1Cl` [H0953, (S)-4-(3-(1-(2,3-dichloro-4-methoxyphenyl)ethyl)ureido)-N-(p-tolyl)benzenesulfonamide] it is under 4.52; for `Cc1ccc(NS(=O)(=O)c2ccc(NC(=O)N[C@@H](C)c3cccc(Cl)c3Cl)cc2)cc1` [H0966, (S)-4-(3-(1-(2,3-dichlorophenyl)ethyl)ureido)-N-(p-tolyl)benzenesulfonamide] it is 5.18.
On the same count and under the same terms, the figure for `C[C@H](NC(=O)Nc1ccc(S(=O)(=O)Cc2ccc(C(=O)O)cc2)cc1)c1cccc(Cl)c1Cl` [H1059] is under 4.52.
With `C[C@H](NC(=O)Nc1ccc(S(=O)(=O)Cc2ccc(C#N)cc2)cc1)c1cccc(Cl)c1Cl` [H1101, (S)-1-(4-((4-cyanobenzyl)sulfonyl)phenyl)-3-(1-(2,3-dichlorophenyl)ethyl)urea], the pIC50 was at most 4.52.
Take `CN1Cc2ccc(CS(=O)(=O)c3ccc(NC(=O)NCC4CC4)cc3)cc2C1` [H1230, 1-(cyclopropylmethyl)-3-(4-(((2-methylisoindolin-5-yl)methyl)sulfonyl)phenyl)urea]: the negative-log IC50 (pIC50) was 5.19.
For the compound `C[C@H](NC(=O)Nc1ccc(S(=O)(=O)NCCC2CCNCC2)cc1)c1cccc(Cl)c1Cl` [H1052, (S)-4-(3-(1-(2,3-dichlorophenyl)ethyl)ureido)-N-(2-(piperidin-4-yl)ethyl)benzenesulfonamide], the negative logarithm of the IC50 (pIC50) is 6.33.
Regarding `COc1ccc([C@H](C)NC(=O)Nc2ccc(S(=O)(=O)Nc3ccc4c(c3)CCCN4)cc2)c(Cl)c1Cl` [H1008, (S)-4-(3-(1-(2,3-dichloro-4-methoxyphenyl)ethyl)ureido)-N-(1,2,3,4-tetrahydroquinolin-6-yl)benzenesulfonamide], the negative logarithm of the IC50 (pIC50) was 5.20.
`C[C@H](NC(=O)Nc1ccc(S(=O)(=O)Cc2ccc(-c3cccnc3)cc2)cc1)c1cccc(Cl)c1Cl` [H1070, (S)-1-(1-(2,3-dichlorophenyl)ethyl)-3-(4-((4-(pyridin-3-yl)benzyl)sulfonyl)phenyl)urea]: the negative logarithm of the IC50 (pIC50) was 5.28.
Regarding `C[C@H](NC(=O)Nc1ccc(S(=O)(=O)Nc2ccccc2)cc1)c1cccc(Cl)c1Cl` [H0965, (S)-4-(3-(1-(2,3-dichlorophenyl)ethyl)ureido)-N-phenylbenzenesulfonamide], the pIC50 was under 4.52.
Turning to `C[C@H](NC(=O)Nc1ccc(S(=O)(=O)C(C)(C)c2ccc3c(c2)CCNC3)cc1)c1cccc(Cl)c1Cl` [H1081, (S)-1-(1-(2,3-dichlorophenyl)ethyl)-3-(4-((2-(1,2,3,4-tetrahydroisoquinolin-6-yl)propan-2-yl)sulfonyl)phenyl)urea], the negative-log IC50 (pIC50) was 5.91.
On the same count and under the same terms, the same measure for `C[C@H](NC(=O)Nc1ccc(S(=O)(=O)Nc2ccc(CCO)cc2)cc1)c1ccccc1Cl` [H1095, (S)-4-(3-(1-(2-chlorophenyl)ethyl)ureido)-N-(4-(2-hydroxyethyl)phenyl) benzenesulfonamide]: 5.84; for `COc1ccc(C(C)NC(=O)Nc2ccc(S(=O)(=O)Cc3ccc(CO)cc3)cc2)c2ccccc12` (stereo not shown) [H1140, 1-(4-((4-(hydroxymethyl)benzyl)sulfonyl)phenyl)-3-(1-(4-methoxynaphthalen-1-yl)ethyl)urea]: at most 4.52.
Regarding `C[C@H](NC(=O)N(C)c1ccc(S(=O)(=O)Nc2ccc(CC(C)(C)N)cc2)cc1)c1ccc(-c2cnccn2)c(Cl)c1Cl` [H0942, (S)-N-(4-(2-amino-2-methylpropyl)phenyl)-4-(3-(1-(2,3-dichloro-4-(pyrazin-2-yl)phenyl)ethyl)-1-methylureido) benzenesulfonamide], the pIC50 is 5.69.
Consider `CC(NC(=O)N(O)c1ccc(S(=O)(=O)Nc2ccc3c(c2)CNC3)cc1)c1ccccc1` (stereo not shown) [H1199, 4-(1-hydroxy-3-(1-phenylethyl)ureido)-N-(isoindolin-5-yl)benzenesulfonamide], for which the negative logarithm of the IC50 (pIC50) is 7.12.
Same read-out and setting: the same measure for `C[C@H](NC(=O)Nc1ccc(S(=O)(=O)Cc2ccc3c(c2)NCC3)cc1)c1cccc(Cl)c1Cl` [H1045, (S)-1-(1-(2,3-dichlorophenyl)ethyl)-3-(4-((indolin-6-ylmethyl)sulfonyl)phenyl)urea]: 5.56; for `O=C(NCc1cncs1)Nc1ccc(S(=O)(=O)Cc2ccc3c(c2)CNC3)cc1` [H1208, 1-(4-((isoindolin-5-ylmethyl)sulfonyl)phenyl)-3-(thiazol-5-ylmethyl)urea]: under 4.52.
As to `CCc1ccc(Cl)c(C(=O)NC(=O)Nc2ccc(S(=O)(=O)Cc3ccc(CC(C)(C)N)cc3)cc2)c1` [H1253, N-((4-((4-(2-amino-2-methylpropyl)benzyl)sulfonyl)phenyl)carbamoyl)-2-chloro-5-ethylbenzamide], the negative logarithm of the IC50 (pIC50) is 7.06.
Same read-out and setting: the same measure for `COc1ccc([C@H](C)NC(=O)Nc2ccc(S(=O)(=O)Nc3ccc4c(c3)CCN(S(C)(=O)=O)C4)cc2)c(Cl)c1Cl` [H1033, (S)-4-(3-(1-(2,3-dichloro-4-methoxyphenyl)ethyl)ureido)-N-(2-(methylsulfonyl)-1,2,3,4-tetrahydroisoquinolin-6-yl)benzenesulfonamide]: 5.52.

A further experiment has as its target T2, recombinant human ghrelin receptor (HEK293/GRLN) (Homo sapiens, UniProt Q92847).
T2 construct: expressed in transfected cells
Kind of experiment: Ghrelin inverse agonist potency (EC50) with IP-1 (IP-One HTRF) assay. In kind it is cell-based. Particulars: inverse agonist potency, IP-1 assay; read-out: EC50 (Activity). As for the experimental part:
Evaluation of Ghrelin Inverse Agonist Potency (EC50) with IP-1 Assay:
HEK293 cells stably expressing recombinant human ghrelin receptor (HEK293/GRLN) were used in the IP-One HTRF assay. One day before the test, cells were seeded at a density of 1.5×10^4/well in a Matrigel® coated 384-well plate with 30 μL of complete Dulbecco's Modified Eagle's Medium and incubated at 37° C. in 5% CO2 for 18-22 hours. On the test day, the medium was removed by centrifugation at 600 rpm for 30 seconds, and 20 μL of stimulation buffer containing 1x tested compound was added with Bravo (Agilent technologies). The plate was then incubated at 37° C. 5% CO2 for 1 hour. After the incubation, 5 μL of IP1-d2 and 5 μL of Tb-Cryp were added to all wells using multidrop Combi(Thermo). After additional incubation at room temperature for 1 hour, the plates were read on Envision with 620 and 665 (Perkin Elmer).
In the case of `C[C@H](NC(=O)Nc1ccc(S(=O)(=O)Cc2ccc3c(c2)COCC3)cc1)c1cccc(Cl)c1Cl` [H1097, (S)-1-(1-(2,3-dichlorophenyl)ethyl)-3-(4-((isochroman-7-ylmethyl)sulfonyl)phenyl)urea], the negative logarithm of the EC50 (pEC50) is 6.44.
On the same count and under the same terms, the figure for `C[C@H](NC(=O)Nc1ccc(S(=O)(=O)Nc2ccc(CN)cc2)cc1)c1cccc(Cl)c1Cl` [H1050, (S)-N-(4-(aminomethyl)phenyl)-4-(3-(1-(2,3-dichlorophenyl)ethyl)ureido) benzenesulfonamide] is 6.96; for `CC(C)(C)NC(=O)Nc1ccc(S(=O)(=O)Cc2ccc3c(c2)CNC3)cc1` [H1205, 1-(tert-butyl)-3-(4-((isoindolin-5-ylmethyl)sulfonyl)phenyl)urea] it is 5.27.
Same read-out and setting: the figure for `COc1ccc(CS(=O)(=O)c2ccc(NC(=O)N[C@@H](C)c3cccc(Cl)c3Cl)cc2)cc1` [H1083, (S)-1-(1-(2,3-dichlorophenyl)ethyl)-3-(4-((4-methoxybenzyl)sulfonyl)phenyl)urea] is 5.93.
For `CCNC(=O)Nc1ccc(S(=O)(=O)Nc2ccc(CC(C)(C)N)cc2)cc1` [H0994, N-(4-(2-amino-2-methylpropyl)phenyl)-4-(3-ethylureido)benzenesulfonamide], the negative logarithm of the EC50 (pEC50) is 5.84.
Turning to `C[C@H](NC(=O)Nc1ccc(S(=O)(=O)Cc2ccc3c(c2)CCOC3)cc1)c1cccc(Cl)c1Cl` [H1092, (S)-1-(1-(2,3-dichlorophenyl)ethyl)-3-(4-((isochroman-6-ylmethyl)sulfonyl)phenyl)urea], the pEC50 is 6.24.
